In patent US20250215039A1, “NUCLEOSIDES FOR TREATING CANCER” (PRIMEFOUR THERAPEUTICS, INC., priority 2022, published 2025):
Like-named read-outs stand apart in the source and are kept apart here.

System: cancer cell lines
Assay: Cancer cell proliferation activity (CellTiterGlo, 72 h)
Type: cell-based
Details: 72 h, 72 h, read-out: IC50 cell proliferation
Method in brief: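 Readout is CellTiterGlo luminescence after 72 h compound exposure (0.1% DMSO final), started one day post-seeding, at 37 °C.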

Nc1nc(F)nc2c1ncn2[C@@H]1O[C@H](CO)[C@@H](O)[C@@H]1O [compound 170, (2R,3S,4S,5R)-2-(6-amino-2-fluoro-9H-purin-9-yl)-5-(hydroxymethyl)tetrahydrofuran-3,4-diol]
IC50 (5637 (bladder)): 2.4 µM | IC50 (CLS439 (bladder)): 45.5 µM | IC50 (HS729 (muscle)): 3.52 µM | IC50 (J82 (bladder)): 19.4 µM | IC50 (JAR (placenta)): 45.9 µM | IC50 (MT3 (breast)): 2 µM | IC50 (PANCI (pancreas)): 16.6 µM | IC50 (PC3 (prostate)): 2.54 µM | IC50 (RD (muscle)): 11.9 µM | IC50 (T24 (bladder)): 5.89 µM | IC50 (Homo sapiens, 22Rv1, 72 h, 22RV1 (prostate)): 79.5 µM | IC50 (Homo sapiens, 786-0, 72 h, 786O (kidney)): 29.6 µM | IC50 (Homo sapiens, A204, 72 h, A204 (muscle)): 0.53 µM | IC50 (Homo sapiens, A549, 72 h, A549 (lung)): 8.86 µM | IC50 (Homo sapiens, A673, 72 h, A673 (bone)): 10.8 µM | IC50 (Homo sapiens, A2780, 72 h, A2780 (ovary)): 7.16 µM | IC50 (Homo sapiens, A-375, 72 h, A375 (skin)): 9.75 µM | IC50 (Homo sapiens, A-431, 72 h, A431 (skin)): 11.1 µM | IC50 (Homo sapiens, ACHN, ACHN (kidney)): 12.7 µM | IC50 (Homo sapiens, ASPC1, 72 h, ASPC1 (pancreas)): 7.85 µM | IC50 (Homo sapiens, BT-20, 72 h, BT20 (breast)): 38.2 µM | IC50 (Homo sapiens, BXPC-3, 72 h, BXPC3 (pancreas)): 6.87 µM | IC50 (Homo sapiens, C-33-A, C33A (endometrial)): 9.56 µM | IC50 (Homo sapiens, CAKI-1, 72 h, CAKI1 (kidney)): 2.46 µM | IC50 (Homo sapiens, COLO 205, 72 h, COLO205 (colon)): 2.8 µM | IC50 (Homo sapiens, COLO-678, 72 h, COLO678 (colon)): 21.8 µM | IC50 (Homo sapiens, Ca-Ski, CASKI (endometrial)): 107 µM | IC50 (Homo sapiens, Caco-2, 72 h, CACO2 (colon)): 49.2 µM | IC50 (Homo sapiens, Calu-6, 72 h, CALU6 (lung)): 17.3 µM | IC50 (Homo sapiens, DLD-1, 72 h, DLD1 (colon)): 11.4 µM | IC50 (Homo sapiens, DU-145, 72 h, DU145 (prostate)): 5.44 µM | IC50 (Homo sapiens, EFO-21, 72 h, EFO21 (ovary)): 7.34 µM | IC50 (Homo sapiens, EJ-28, 72 h, EJ28 (bladder)): 10.4 µM | IC50 (Homo sapiens, Granta-519, 72 h, GRANTA-519 (hematological)): 1.66 µM | IC50 (Homo sapiens, HCT-15, 72 h, HCT15 (colon)): 12.4 µM | IC50 (Homo sapiens, HCT-116, 72 h, HCT116 (colon)): 5.26 µM | IC50 (Homo sapiens, HEK293, 72 h, HEK293 (kidney)): 35.2 µM | IC50 (Homo sapiens, HL-60, 72 h, HL-60 (hematological)): 2.05 µM | IC50 (Homo sapiens, HT-29, 72 h, HT29 (colon)): 18.4 µM | IC50 (Homo sapiens, HT-1080, 72 h, HT1080 (connective tissue)): 4.09 µM | IC50 (Homo sapiens, HeLa, HELA (endometrial)): 6.72 µM | IC50 (Homo sapiens, HepG2, 72 h, HEPG2 (liver)): 15.3 µM | IC50 (Homo sapiens, Hs-578T, HS578T (breast)): 36.6 µM | IC50 (Homo sapiens, IGROV-1, 72 h, IGROV1 (ovary)): 13.6 µM | IC50 (Homo sapiens, IMR-90, 72 h, IMR90 (lung)): 11.8 µM | IC50 (Homo sapiens, JEG-3, 72 h, JEG3 (placenta)): 56.8 µM | IC50 (Homo sapiens, JIMT-1, 72 h, JIMT1 (breast)): 1.66 µM | IC50 (Homo sapiens, K562, 72 h, K-562 (hematological)): 41.8 µM | IC50 (Homo sapiens, Kasumi 1, 72 h, KASUMI-1 (hematological)): 0.55 µM | IC50 (Homo sapiens, L-363, 72 h, L-363 (hematological)): 33 µM | IC50 (Homo sapiens, LoVo, LOVO (colon)): 9.73 µM | IC50 (Homo sapiens, MCF7, 72 h, MCF7 (breast)): 27.2 µM | IC50 (Homo sapiens, MDA-MB-231, 72 h, MDAMB231 (breast)): 2.88 µM | IC50 (Homo sapiens, MDA-MB-435, 72 h, MDAMB435 (skin)): 14.2 µM | IC50 (Homo sapiens, MDA-MB-436, 72 h, MDAMB436 (breast)): 3.35 µM | IC50 (Homo sapiens, MDA-MB-468, 72 h, MDAMB468 (breast)): 23.6 µM | IC50 (Homo sapiens, MG-63, 72 h, MG63 (bone)): 15.5 µM | IC50 (Homo sapiens, MHH-ES-1, 72 h, MHHES1 (bone)): 5.05 µM | IC50 (Homo sapiens, MIA PaCa-2, 72 h, MIAPACA2 (pancreas)): 35.4 µM | IC50 (Homo sapiens, MINO, MINO (hematological)): 0.61 µM | IC50 (Homo sapiens, MV4-11, 72 h, MV4-11 (hematological)): 5.77 µM | IC50 (Homo sapiens, NCI-H23, 72 h, NCI-H23 (lung)): 8.19 µM | IC50 (Homo sapiens, NCI-H82, 72 h, NCIH82 (lung)): 21.3 µM | IC50 (Homo sapiens, NCI-H292, 72 h, NCIH292 (lung)): 8.01 µM | IC50 (Homo sapiens, NCI-H460, 72 h, NCIH460 (lung)): 32.5 µM | IC50 (Homo sapiens, OVCAR-3, 72 h, OVCAR3 (ovary)): 1.13 µM | IC50 (Homo sapiens, OVCAR-4, 72 h, OVCAR4 (ovary)): 16.3 µM | IC50 (Homo sapiens, PLC-PRF-5, 72 h, PLCPRF5 (liver)): 20.1 µM | IC50 (Homo sapiens, Panc1005, 72 h, PANC1005 (pancreas)): 5.7 µM | IC50 (Homo sapiens, Ramos, RAMOS (hematological)): 5.1 µM | IC50 (Homo sapiens, SAOS-2, 72 h, SAOS2 (bone)): 0.45 µM | IC50 (Homo sapiens, SF-268, 72 h, SF268 (brain)): 16.3 µM | IC50 (Homo sapiens, SF-295, 72 h, SF295 (brain)): 86.5 µM | IC50 (Homo sapiens, SK-BR-3, 72 h, SKBR3 (breast)): 1.58 µM | IC50 (Homo sapiens, SK-HEP1, 72 h, SKHEP1 (liver)): 5.36 µM | IC50 (Homo sapiens, SK-LMS-1, 72 h, SKLMS1 (uterus)): 44.3 µM | IC50 (Homo sapiens, SK-MEL-5, 72 h, SKMEL5 (skin; SKMELS [sic] in Table 9E)): 15.9 µM | IC50 (Homo sapiens, SK-MEL-28, 72 h, SKMEL28 (skin)): 11.1 µM | IC50 (Homo sapiens, SK-N-AS, SKNAS (brain)): 29.5 µM | IC50 (Homo sapiens, SK-N-SH, SKNSH (brain)): 22.2 µM | IC50 (Homo sapiens, SK-OV-3, 72 h, SKOV3 (ovary)): 4.22 µM | IC50 (Homo sapiens, SNB-75, 72 h, SNB75 (brain)): 50.6 µM | IC50 (Homo sapiens, SU-DHL10, 72 h, SU-DHL-10 (hematological)): 5.61 µM | IC50 (Homo sapiens, SU-DHL-6, 72 h, SU-DHL-6 (hematological)): 38.6 µM | IC50 (Homo sapiens, SW-620, 72 h, SW620 (colon)): 17.4 µM | IC50 (Homo sapiens, TE-671, 72 h, TE671 (muscle)): 11.1 µM | IC50 (Homo sapiens, THP-1, 72 h, THP-1 (hematological)): 5.86 µM | IC50 (Homo sapiens, U2OS, U20S (bone; U2OS in Table 9E)): 13.8 µM | IC50 (Homo sapiens, U-87 MG, U87MG (brain)): 5.59 µM | IC50 (Homo sapiens, UMUC3, 72 h, UMUC3 (bladder)): 21.6 µM | IC50 (Homo sapiens, UO-31, 72 h, UO31 (kidney)): 7.43 µM | IC50 (Homo sapiens, WSU-NHL, WSU-NHL (hematological)): 1.91 µM | IC50 (NCI-H358M, NCIH358M (lung)): 0.29 µM | IC50 (PBMC, PBMC (hematological)): 0.29 µM | IC50 (RD-ES, RDES (bone)): 35.3 µM
